Reference: patent publication US20260193271A1, “PAN-KRAS INHIBITOR COMPOUND” (ADLAI NORTYE BIOPHARMA CO., LTD., priority 2022, published 2026)

Legend:
AsPC-1 (G12D) = assay: In vitro cell proliferation inhibition test (CellTiter-Glo), AsPC-1; type: cell-based; conditions: KRAS (p.G12D), 72 h co-incubation
Summary of the method: (§1)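 Cells were seeded at 1000-5000/well by doubling time and cultured overnight at 37 °C, 5% CO2. They were then exposed for 72 h to 10-point, 3-fold compound dilutions (final top 10 μM), and viability was read by CellTiter-Glo luminescence. IC50 came from normalized signals fitted by four-parameter regression.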

SW480 (G12V) = assay: In vitro cell proliferation inhibition test (CellTiter-Glo), SW480; type: cell-based; conditions: SW480 colon cell line, KRAS (p.G12V), 72 h co-incubation
Summary of the method: as §1

[1] = Homo sapiens, ASPC1, AsPC-1 pancreas cell line

SMILES | IC50 (AsPC-1 (G12D); [1]) [nM] | IC50 (SW480 (G12V); Homo sapiens) [nM] | IC50 (AsPC-1 (G12D); AsPC-1 pancreas cell line) [nM] | IC50 (SW480 (G12V)) [nM]
CCn1c(-c2cc(-c3cnc(N4CCN(C)CC4)nc3)cnc2[C@H](C)OC)c2c3cc(ccc31)-c1csc(n1)C[C@H](NC(=O)[C@H]1C[C@@H]1C)C(=O)N1CCC[C@H](N1)C(=O)OCC(C)(C)C2 (atropisomer, axis not shown) [Compound 54, (1S,2S)-N-((6^3S,4S,Z)-1^1-ethyl-1^2-(2-((S)-1-methoxyethyl)-5-(2-(4-methylpiperazin-1-yl)pyrimidin-5-yl)pyridin-3-yl)-10,10-dimethyl-5,7-dioxo-6^1,6^2,6^3,6^4,6^5,6^6-hexahydro-1^1H-8-oxa-2(4,2)-thiazola-1(5,3)-indola-6(1,3)-pyridazinacycloundecaphane-4-yl)-2-methylcyclopropane-1-carboxamide] | 2.2 | 5.7 | – | –
CCn1c(-c2cc(-c3cnc(CN4CCCCC4)nc3)cnc2[C@H](C)OC)c2c3cc(ccc31)-c1csc(n1)C[C@H](NC(=O)[C@H]1C[C@@H]1C)C(=O)N1CCC[C@H](N1)C(=O)OCC(C)(C)C2 (atropisomer, axis not shown) [Compound 55, (1S,2S)-N-((6^3S,4S,Z)-1^1-ethyl-1^2-(2-((S)-1-methoxyethyl)-5-(2-(piperidin-1-ylmethyl)pyrimidin-5-yl)pyridin-3-yl)-10,10-dimethyl-5,7-dioxo-6^1,6^2,6^3,6^4,6^5,6^6-hexahydro-1^1H-8-oxa-2(4,2)-thiazola-1(5,3)-indola-6(1,3)-pyridazinacycloundecaphane-4-yl)-2-methylcyclopropane-1-carboxamide] | 6.8 | 15 | – | –
CCn1c(-c2cc(-c3cnc(CN4CCN(CCOC)CC4)nc3)cnc2[C@H](C)OC)c2c3cc(ccc31)-c1csc(n1)C[C@H](NC(=O)[C@H]1C[C@@H]1C)C(=O)N1CCC[C@H](N1)C(=O)OCC(C)(C)C2 (atropisomer, axis not shown) [Compound 58, (1S,2S)-N-((6^3S,4S,Z)-1^1-ethyl-1^2-(2-((S)-1-methoxyethyl)-5-(2-((4-(2-methoxyethyl)piperazin-1-yl)methyl)pyrimidin-5-yl)pyridin-3-yl)-10,10-dimethyl-5,7-dioxo-6^1,6^2,6^3,6^4,6^5,6^6-hexahydro-1^1H-8-oxa-2(4,2)-thiazola-1(5,3)-indola-6(1,3)-pyridazinacycloundecaphane-4-yl)-2-methylcyclopropane-1-carboximide] | 68 | 30 | – | –
CCn1c(-c2cc(-c3cnn(C4CCN(C)CC4)c3)cnc2[C@H](C)OC)c2c3cc(ccc31)-c1csc(n1)C[C@H](NC(=O)[C@H]1C[C@@H]1C)C(=O)N1CCC[C@H](N1)C(=O)OCC(C)(C)C2 (atropisomer, axis not shown) [Compound 63, (1S,2S)-N-((6^3S,4S,Z)-1^1-ethyl-1^2-(2-((S)-1-methoxyethyl)-5-(1-(1-methylpiperidin-4-yl)-1H-pyrazol-4-yl)pyridin-3-yl)-10,10-dimethyl-5,7-dioxo-6^1,6^2,6^3,6^4,6^5,6^6-hexahydro-1^1H-8-oxa-2(4,2)-thiazola-1(5,3)-indola-6(1,3)-pyridazinacycloundecaphane-4-yl)-2-methylcyclopropane-1-carboxamide] | 48 | 71 | – | –
CCn1c(-c2cc(-c3ccc4c(c3)CN(C)C4)cnc2C(C)OC)c2c3cc(ccc31)-c1csc(n1)CC(NC(=O)C1CC1C)C(=O)N1CCCC(N1)C(=O)OCC(C)(C)C2 [Compound 2′, (1S,2S)-N-((6^3S,4S,Z)-1^1-ethyl-1^2-(2-((S)-1-methoxyethyl)-5-(2-methylisoindolin-5-yl)pyridin-3-yl)-10,10-dimethyl-5,7-dioxo-6^1,6^2,6^3,6^4,6^5,6^6-hexahydro-1^1H-8-oxa-2(4,2)-thiazola-1(5,3)-indola-6(1,3)-pyridazinacycloundecaphane-4-yl)-2-methylcyclopropane-1-carboxamide] | – | – | 2500 | 820
CCn1c(-c2cc(-c3cccc(CN4CCOCC4)n3)cnc2[C@H](C)OC)c2c3cc(ccc31)-c1csc(n1)C[C@H](NC(=O)C1C[C@@H]1C)C(=O)N1CCC[C@H](N1)C(=O)OCC(C)(C)C2 (stereo partly drawn) [Compound 13, (1S,2S)-N-((6^3S,4S,Z)-1^1-ethyl-1^2-(6′-((S)-1-methoxyethyl)-6-(morpholinomethyl)-[2,3′-bipyridin]-5′-yl)-10,10-dimethyl-5,7-dioxo-6^1,6^2,6^3,6^4,6^5,6^6-hexahydro-1^1H-8-oxa-2(4,2)-thiazola-1(5,3)-indola-6(1,3)-pyridazinacycloundecaphane-4-yl)-2-methylcyclopropane-1-carboxamide] | 2.5 | 2 | – | –
CCn1c(-c2cc(-c3ncc(CN4CCOCC4)cn3)cnc2[C@H](C)OC)c2c3cc(ccc31)-c1csc(n1)C[C@H](NC(=O)C1C[C@@H]1C)C(=O)N1CCC[C@H](N1)C(=O)OCC(C)(C)C2 (stereo partly drawn) [Compound 14, (1S,2S)-N-((6^3S,4S,Z)-1^1-ethyl-1^2-(2-((S)-1-methoxyethyl)-5-(5-(morpholinomethyl)pyrimidin-2-yl)pyridin-3-yl)-10,10-dimethyl-5,7-dioxo-6^1,6^2,6^3,6^4,6^5,6^6-hexahydro-1^1H-8-oxa-2(4,2)-thiazola-1(5,3)-indola-6(1,3)-pyridazinacycloundecaphane-4-yl)-2-methylcyclopropane-1-carboxamide] | 1.7 | 2.8 | – | –

Next, values leading:

IC50 (AsPC-1 (G12D); [1]) [nM] | IC50 (SW480 (G12V); Homo sapiens) [nM] | IC50 (AsPC-1 (G12D); AsPC-1 pancreas cell line) [nM] | IC50 (SW480 (G12V)) [nM] | SMILES
16 | 21 | – | – | CCn1c(-c2cc(-c3cnc(N4CCOCC4)nc3)cnc2[C@H](C)OC)c2c3cc(ccc31)-c1csc(n1)C[C@H](NC(=O)[C@H]1C[C@@H]1C)C(=O)N1CCC[C@H](N1)C(=O)OCC(C)(C)C2 (atropisomer, axis not shown) [Compound 56, (1S,2S)-N-((6^3S,4S,Z)-1^1-ethyl-1^2-(2-((S)-1-methoxyethyl)-5-(2-morpholinopyrimidin-5-yl)pyridin-3-yl)-10,10-dimethyl-5,7-dioxo-6^1,6^2,6^3,6^4,6^5,6^6-hexahydro-1^1H-8-oxa-2(4,2)-thiazola-1(5,3)-indola-6(1,3)-pyridazinacycloundecaphane-4-yl)-2-methylcyclopropane-1-carboxamide]
5.6 | 4.6 | – | – | CCn1c(-c2cc(-c3cnc(OC)nc3)cnc2[C@H](C)OC)c2c3cc(ccc31)-c1csc(n1)C[C@H](NC(=O)[C@H]1C[C@@H]1C)C(=O)N1CCC[C@H](N1)C(=O)OCC(C)(C)C2 (atropisomer, axis not shown) [Compound 57, (1S,2S)-N-((6^3S,4S,Z)-1^1-ethyl-1^2-(2-((S)-1-methoxyethyl)-5-(2-methoxypyrimidin-5-yl)pyridin-3-yl)-10,10-dimethyl-5,7-dioxo-6^1,6^2,6^3,6^4,6^5,6^6-hexahydro-1H-8-oxa-2(4,2)-thiazola-1(5,3)-indola-6(1,3)-pyridazinacycloundecaphane-4-yl)-2-methylcyclopropane-1-carboxamide]
3 | 6.2 | – | – | CCn1c(-c2cc(-c3cnc(N(C)C)nc3)cnc2[C@H](C)OC)c2c3cc(ccc31)-c1csc(n1)C[C@H](NC(=O)[C@H]1C[C@@H]1C)C(=O)N1CCC[C@H](N1)C(=O)OCC(C)(C)C2 (atropisomer, axis not shown) [Compound 59, (1S,2S)-N-((6^3S,4S,Z)-1^2-(5-(2-(dimethylamino)pyrimidin-5-yl)-2-((S)-1-methoxyethyl)pyridin-3-yl)-1^1-ethyl-10,10-dimethyl-5,7-dioxo-6^1,6^2,6^3,6^4,6^5,6^6-hexahydro-1^1H-8-oxa-2(4,2)-thiazola-1(5,3)-indola-6(1,3)-pyridazinacycloundecaphane-4-yl)-2-methylcyclopropane-1-carboxamide]
1.6 | 12 | – | – | CCn1c(-c2cc(-c3cnc(OC4CCN(C)CC4)nc3)cnc2[C@H](C)OC)c2c3cc(ccc31)-c1csc(n1)C[C@H](NC(=O)[C@H]1C[C@@H]1C)C(=O)N1CCC[C@H](N1)C(=O)OCC(C)(C)C2 (atropisomer, axis not shown) [Compound 60, (1S,2S)-N-((6^3S,4S,Z)-1^1-ethyl-1^2-(2-((S)-1-methoxyethyl)-5-(2-((1-methylpiperidin-4-yl)oxy)pyrimidin-5-yl)pyridin-3-yl)-10,10-dimethyl-5,7-dioxo-6^1,6^2,6^3,6^4,6^5,6^6-hexahydro-1^1H-8-oxa-2(4,2)-thiazola-1(5,3)-indola-6(1,3)-pyridazinacycloundecaphane-4-yl)-2-methylcyclopropane-1-carboxamide]
19 | 20 | – | – | CCn1c(-c2cc(-c3cnc(CN4CCN5CCOC[C@@H]5C4)nc3)cnc2[C@H](C)OC)c2c3cc(ccc31)-c1csc(n1)C[C@H](NC(=O)[C@H]1C[C@@H]1C)C(=O)N1CCC[C@H](N1)C(=O)OCC(C)(C)C2 (atropisomer, axis not shown) [Compound 61, (1S,2S)-N-((6^3S,4S,Z)-1^1-ethyl-1^2-(5-(2-(((S)-hexahydropyrazino[2,1-c][1,4]oxazin-8(1H)-yl)methyl)pyrimidin-5-yl)-2-((S)-1-methoxyethyl)pyridin-3-yl)-10,10-dimethyl-5,7-dioxo-6^1,6^2,6^3,6^4,6^5,6^6-hexahydro-1^1H-8-oxa-2(4,2)-thiazola-1(5,3)-indola-6(1,3)-pyridazinacycloundecaphane-4-yl)-2-methylcyclopropane-1-carboxamide]
10 | 3.4 | – | – | CCn1c(-c2cc(-c3cnc(CN4CCOCC4)nc3)cnc2[C@H](C)OC)c2c3cc(ccc31)-c1csc(n1)C[C@H](NC(=O)[C@H]1C[C@@H]1C)C(=O)N1CCC[C@H](N1)C(=O)OCC(C)(C)C2 (atropisomer, axis not shown) [Compound 66, (1S,2S)-N-((6^3S,4S,Z)-1^1-ethyl-1^2-(2-((S)-1-methoxyethyl)-5-(2-(morpholinomethyl)pyrimidin-5-yl)pyridin-3-yl)-10,10-dimethyl-5,7-dioxo-6^1,6^2,6^3,6^4,6^5,6^6-hexahydro-1H-8-oxa-2(4,2)-thiazola-1(5,3)-indola-6(1,3)-pyridazinacycloundecaphane-4-yl)-2-methylcyclopropane-1-carboxamide]
